Assay results taken from ChEMBL document CHEMBL5729353, “Imidazopyridazine and imidazopyridine compounds and uses thereof” (2022).

Molecular target: T1, Activin receptor type-1 (Homo sapiens, UniProt Q04771)
T1 sequence (Q04771 whole entry): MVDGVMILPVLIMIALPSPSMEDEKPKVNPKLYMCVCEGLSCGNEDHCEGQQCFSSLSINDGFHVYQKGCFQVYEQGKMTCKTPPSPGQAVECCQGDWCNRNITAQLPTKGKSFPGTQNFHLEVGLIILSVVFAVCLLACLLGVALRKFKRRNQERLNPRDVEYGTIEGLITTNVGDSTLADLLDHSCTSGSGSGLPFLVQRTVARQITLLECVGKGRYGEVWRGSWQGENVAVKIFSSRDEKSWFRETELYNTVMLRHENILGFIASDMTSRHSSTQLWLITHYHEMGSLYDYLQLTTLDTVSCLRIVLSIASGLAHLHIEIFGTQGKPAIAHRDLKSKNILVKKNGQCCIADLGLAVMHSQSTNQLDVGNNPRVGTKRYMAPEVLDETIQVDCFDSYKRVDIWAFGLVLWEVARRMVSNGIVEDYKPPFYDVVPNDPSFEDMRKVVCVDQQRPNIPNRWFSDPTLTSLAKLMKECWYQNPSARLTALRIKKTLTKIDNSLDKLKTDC
Assay: The enzymatic assays were conducted in white 384-well polystyrene plates in a final volume of 8 μL. The inhibitors were serially diluted in DMSO and added to the plate wells prior to addition of the other reaction components. […] The final concentration of DMSO in the assay was 1% and the enzyme concentration was 0.5 nM for ALK2. […] The reaction was incubated at 25° C. for 1 hr and read on a PHERAstar FS plate reader (BMG Labtech). IC50 determination was performed by fitting percent control activity versus the log of the inhibitor concentration using the IDBS XLFit and GraphPad Prism 5.0 software.

Question: For `Cc1nn2c(-c3ccnc4cc(-c5ccncc5)ccc34)cnc2cc1-c1cnn(CC2CCNCC2)c1`, which IC50 is on record?
Answer: The IC50 was under 1 nM.
